Patent publication US20180221362A1, “EZH2 INHIBITORS AND MODULATION OF REGULATORY T-CELL FUNCTION” (Constellation Pharmaceuticals, Inc., priority 2015, published 2018)

Tests used:
FOXP3 = FOXP3 expression by flow cytometry during Treg differentiation; assay type: cell-based, human; settings: increasing concentrations, vs DMSO control; FIG. 3A
H3K27me3 = H3K27me3 levels in treated FOXP3+ T-cells; assay type: cell-based, human; settings: FIG. 3B
human Treg cells = experiment: Luminex cytokine assays of day 4 iTreg culture supernatants; assay type: cell-based; settings: day 4 supernatants; FIG. 3C
Source text: Luminex cytokine assays. Cytokines were quantified from day 4 cell supernatants using Luminex multiplex assays (HTH17MAG-14K-12, Millipore), as per the manufacturer's protocol.
The transcription factor FOXP3 is known to be an essential regulator of Treg cells, and therefore is important to understand if EZH2 plays any role in its expression.

[1] = test system: CT26 mouse colon carcinoma cells; experiment: In vitro growth/sensitivity of CT26 carcinoma cells; assay type: cell-based; settings: FIG. 9
Source text: (§1) We first evaluated whether treatment treatment of CT26 cancer cells would be sensitive to EZH2 ihibition. Protocols using CT26 cancer cells as a model for testing immunotherapy protocols and in studies on host immune response are known.
CD8 T cells are known to be major effectors of anti-tumor efficacy in mice and humans. We also explored immune cell changes beyond what our in vitro experiments had predicted, and found several unanticipated observations. First, natural killer (NK) and NKT cells, also major drivers of anti-tumor activity were increased in Inhibitor 1-treated animals, while reduced in the αPD1 group (FIG. 12). This effect was also clear if groups treated with the EZH2 inhibitor were analyzed together, and against groups not treated with the EZH2 inhibitor (FIG. 7). Second, M2 tumor associated macrophages (TAM), known to be immuno-suppressive, reduced in Inhibitor 1-treated animals, while increased in αPD1-treated animals (FIG. 13). This effect was also observed if groups treated with the EZH2 inhibitor were analyzed together, and against groups not treated with the EZH2 inhibitor (FIG. 8). Similar results were also seen with Inhibitor 4. Growth of CT26 mouse colon carcinoma cells was assessed in the presence of increasing amounts of Inhibitor 4 concentrations. […].

[2] = test system: CT26 mouse colon carcinoma cells; experiment: CT26 allograft transplantation tumor model; assay type: in vivo; settings: BALB/c mice, 21-day treatment; Inhibitor 1 200 mg/kg s.c. BID, PD-1 antibody 200 μg/mouse IP every 3-4 days; FIG. 10
Method: (§2) Tumor implantation and dosing. CT26 mouse colon carcinoma cells (ATCC CRL-2638) were expanded in vitro and 1×10^5 cells/mouse were inoculated with 50% Matrigel into the subcutaneous flank region of 6-8 week old female BABL/C mice (Taconic). Mice were randomized once tumors were palpable (>200 mm^3) and dosing was started on the same day. […] Tumors were measured and body weight recorded every 2-3 days.
as §1
CD8 T cells are known to be major effectors of anti-tumor efficacy in mice and humans. We also explored immune cell changes beyond what our in vitro experiments had predicted, and found several unanticipated observations. […] This effect was also clear if groups treated with the EZH2 inhibitor were analyzed together, and against groups not treated with the EZH2 inhibitor (FIG. 7). […] This effect was also observed if groups treated with the EZH2 inhibitor were analyzed together, and against groups not treated with the EZH2 inhibitor (FIG. 8). […] Growth of CT26 mouse colon carcinoma cells was assessed in the presence of increasing amounts of Inhibitor 4 concentrations. […]

[3] = test system: tumor-infiltrating immune cells; experiment: FACS analysis of tumor-infiltrating immune cells in CT26 tumors; assay type: in vivo, mouse; settings: tumors isolated day 22
Method: as §2
Isolation and analysis of tumor-infiltrating cells. Tumors were chopped into small pieces, digested with 3 mg/mL collagenase A and 100 μg/mL DNase I at 37° C. for 30 mins, followed by the addition of FBS. The digested tumor mass was filtered using […] filters, spun down and washed with PBS Immune cells were visualized and quantifed by FACS on the BD FACSCanto™ II flow cytometry analyzer (BD Bioscience).
The observed efficacy pictured in FIG. 11 was accompanied by changes in the immune infiltrate present in the tumors. Tumors were isolated from mice upon termination of the study (day 22), digested and stained for immune markers allowing for quantification of immune cell populations by FACS. […] Consistent with the reduced efficacy observed in the αPD1 group, we found increased proliferating Treg cells in this group along with decreased proliferating cytotoxic CD8 cells, especially when compared to the combination group (FIG. 11). This effect was also clear if groups treated with the EZH2 inhibitor were analyzed together, and against groups not treated with the EZH2 inhibitor (FIG. 6).

CCS(=O)(=O)N1CCC([C@@H](C)n2c(C)c(C(=O)NCc3c(OC)cc(C)[nH]c3=O)c3ccccc32)CC1 [Inhibitor 1]
FOXP3 expression (frequencies of FOXP3+ cells) (FOXP3): no impact
H3K27me3 in the same (FOXP3+) cells (H3K27me3): robustly decreased
secretion of IFNγ to the culture medium (human Treg cells): dose-dependent increase
secretion of IL-10 to the culture medium (human Treg cells): dose-dependent increase
secretion of IL-13 to the culture medium (human Treg cells): dose-dependent increase
CT26 cell sensitivity in vitro [1]: substantially no CT26 cell sensitivity
tumor growth inhibition efficacy (CT26 tumor volume) [2]: significantly efficacious
NKT cells in tumors ([3]; FIG. 12): increased
natural killer (NK) cells in tumors ([3]; FIG. 12): increased
M2 tumor associated macrophages (TAM) in tumors ([3]; FIG. 13): reduced
